Measurements: patent US20080140138A1, “Inhibition of inflammatory cytokine production by stimulation of brain muscarinic receptors” (priority 2002, published 2008)

How the values were obtained:
[1] = tested on: beta adrenergic; assay: NovaScreen receptor binding panel; conditions: 10 μM; <50% = marginal or no activity
Protocol: (§1) Method of determining CNI-1493 receptor binding. CNI-1493 was tested at a single concentration (10 μM) in a panel of receptor binding assays by NovaScreen Biosciences Corporation (Hanover, Md.). Values were expressed as the percent inhibition of specific binding, and represented the average of duplicate tubes. Method of stereotactic intracerebroventricular injections. A rat model of intracerebroventricular (i.c.v.) injections was established in order to be able to directly deliver pharmacological agents into the brain of rats. This was necessary in order to separate drug effects on peripheral inflammation that occurred through central versus peripheral mechanisms. Lewis rats were anaesthetized with urethane (1 g/kg, i.p.) and xylazine (15 mg/rat, i.m. (intramuscular)). Rats were then placed in a stereotactic head frame (Stoelting, Wood Dale, Ill., USA). The incisor bar was adjusted until the plane defined by the lambda and bregma was parallel to the base plate. For i.c.v. injections the needle of a Hamilton syringe (25 μl) was positioned stereotactically above the lateral ventricle (0.2 mm and 1.5 mm posterior to bregma, 3.2 mm below the dura.) Solutions of the drugs tested were prepared in sterile endotoxin-free water, at the specified concentrations, and a 10-μl injection/rat was administered over 2 min, 1 h prior to either carrageenan injection, or to LPS.

[2] = molecular target: NK1 neurokinin (Homo sapiens, UniProt P25103); assay: NovaScreen receptor binding panel; conditions: 10 μM; <50% = marginal or no activity
Protocol: as §1

[3] = tested on: site 2 sodium; assay: NovaScreen receptor binding panel; conditions: 10 μM; <50% = marginal or no activity
Protocol: as §1

[4] = tested on: site 1 sodium; assay: NovaScreen receptor binding panel; conditions: 10 μM; <50% = marginal or no activity
Protocol: as §1

[5] = tested on: dopamine; assay: NovaScreen receptor binding panel; conditions: 10 μM; <50% = marginal or no activity
Protocol: as §1

[6] = tested on: serotonin; assay: NovaScreen receptor binding panel; conditions: 10 μM, average of duplicate tubes
Protocol: as §1

[7] = tested on: muscarinic; assay: NovaScreen receptor binding panel; conditions: 10 μM, average of duplicate tubes
Protocol: as §1

[8] = tested on: voltage-insensitive potassium channel; assay: NovaScreen receptor binding panel; conditions: 10 μM, average of duplicate tubes
Protocol: as §1

[9] = tested on: leukotriene D4 and LTD4; assay: NovaScreen receptor binding panel; conditions: 10 μM; <50% = marginal or no activity
Protocol: as §1

[10] = tested on: chloride channel; assay: NovaScreen receptor binding panel; conditions: 10 μM; <50% = marginal or no activity
Protocol: as §1

[11] = molecular target: epidermal growth factor (Homo sapiens, UniProt P00533); assay: NovaScreen receptor binding panel; conditions: 10 μM; <50% = marginal or no activity
Protocol: as §1

[12] = molecular target: H1 histamine (Homo sapiens, UniProt P35367); assay: NovaScreen receptor binding panel; conditions: 10 μM; <50% = marginal or no activity
Protocol: as §1

[13] = tested on: LPS-induced serum TNF; assay: LPS-induced serum TNF after i.c.v. drug injection, L929 bioactivity assay; format: in vivo, Lewis rats; conditions: 5 μg/rat i.c.v., 1 h before LPS 15 mg/kg i.v.; blood 2 h post LPS
Protocol: Method of stereotactic intracerebroventricular injections. […] Lewis rats were anaesthetized with urethane (1 g/kg, i.p.) and xylazine (15 mg/rat, i.m. (intramuscular)). Rats were then placed in a stereotactic head frame (Stoelting, Wood Dale, Ill., USA). The incisor bar was adjusted until the plane defined by the lambda and bregma was parallel to the base plate. For i.c.v. injections the needle of a Hamilton syringe (25 μl) was positioned stereotactically above the lateral ventricle (0.2 mm and 1.5 mm posterior to bregma, 3.2 mm below the dura.) Solutions of the drugs tested were prepared in sterile endotoxin-free water, at the specified concentrations, and a 10-μl injection/rat was administered over 2 min, 1 h prior to either carrageenan injection, or to LPS.
In one set of experiments, rats were injected by i.c.v. means with either saline (n=1), CNI-1493 (5 μg/rat, n=3), CNI-1493 plus atropine (5 μg/rat each), or atropine (5 μg/rat). LPS (15 mg/kg, i.v.) was given 1 h later. Blood was collected 2 h post LPS administration. Serum TNF was determined by the L929 assay.

[14] = tested on: LPS-induced TNF release; assay: Conditioning (CNI-1493 with bell ringing), LPS-induced TNF release, L929 assay; format: in vivo, Mice; conditions: CNI-1493 2.5 mg/kg i.p. with bell ringing vs. saline with bell ringing (Group 2 vs. Group 4; p=0.22); LPS 5 mg/kg i.p.
Protocol: Mice were grouped into four groups (n=4 animals/group). The conditioning training for Groups 2-4 consisted of morning and afternoon sessions. Mice in group 2 were together taken to a room, where each mouse was injected with CNI-1493 (2.5 mg/kg, i.p.). Simultaneously with the injection, each mouse was subjected to 45 seconds of bell ringing. Group 4 mice, similar to Group 2 mice, were subjected to control conditioning, whereby mice were injected with saline, instead of CNI-1493. Group 3 mice, like Group 2 mice, were subjected to saline injections but not bell ringing. This protocol was performed over a 10 day period, on days 1-4 and 8-10. On day 11, Group 1 mice were injected with CNI-1493 (2.5 mg/kg, i.p.). Also on day 11, 30 min after the Group 1 mice injections were performed, animals in all groups were injected with LPS (5 mg/kg, i.p.). After 2 hours, the mice were euthanized via CO2 inhalation, and blood was withdrawn. Serum TNF was determined by the L929 assay.

[15] = tested on: alpha 1 adrenergic; assay: NovaScreen receptor binding panel, CNI-1493 at 10 μM; conditions: average of duplicate tubes
Protocol: as §1

[16] = tested on: carrageenan-induced hindpaw edema; assay: Carrageenan-induced hindpaw edema; format: in vivo, Lewis rats; conditions: CNI-1493 5 μg/rat i.c.v., 1 h before carrageenan; edema 3 h post carrageenan
Protocol: as §1
The tested drugs, in either the carrageenan and/or LPS experiments, were: saline control; fluoxetine hydrochloride, (also known as Prozak) (0.01 mg/100 g); muscarine (50 μg/rat, 5 μg/rat, 0.5 μg/rat, 0.05 μg/rat, 0.005 μg/rat); 4-(N-[3-chlorophenyl]carbamoyloxy)-2-butynyltrimethylammonium chloride (also known as McN-A-343) (5 μg/rat); Muscarinic Toxin-3, (also known as MT-3) from Dendroaspis angusticeps snake venom (0.37 μg/rat); nicotine (10 μg/rat); CNI-1493 (1 μg/kg, 50 μg/rat); atropine (1 μg/kg, 5 μg/rat); CNI-1493 plus atropine (1 μg/kg of each of the drugs; 50 μg/rat, 5 μg/rat respectively); naloxone hydrochloride (2 μg/rat), CNI-1493 plus naloxone (50 μg/rat+5 μg/rat respectively); and morphine (20 μg/rat).
Method of carrageenan-induced hindpaw edema. Paw edema was induced in anaesthetized rats by injection of 1% solution of 1-carrageenan (100 μl) into the plantar surface of the left hindpaw. The right hindpaw was injected with the same volume of saline alone (as control). The thickness of the carrageenan-treated and saline-treated hindpaw was measured using a caliper at 3 h post carrageenan, and the difference between paw thickness calculated as an index of inflammation (paw swelling). Method of LPS injections and TNF determination. LPS (15 mg/kg, i.v.) was injected in the tail vein 1 h after drug injection. Blood was obtained 2 h post LPS injection by paraorbital bleeding. Serum TNF concentrations were determined by an L929 bioactivity assay. Method of assessing TNF by the L929 bioactivity assay. L929 cells were suspended in Dulbecco's minimal Eagle's medium (DMEM; GibcoBRL) supplemented with fetal bovine serum (10%; Hyclone) and penicillin/streptomycin (0.5%; Sigma Chemical Co.), and plated at 2×10^4 cells per well in 96-well flat-bottomed microtiter plates. After 24 h, media were respirated and replaced with medium containing cycloheximide (10 μg/ml; Sigma Chemical Co.) and the samples to be assayed/TNF standards. Plates were incubated overnight, at which time cell viability as a function of TNF concentration was assessed by the MTT assay. Absorbance values were converted to units per milliliter by comparison with a standard curve for rat TNF.
In a third set of experiments, rats were injected by i.c.v. means with either saline (n=4), CNI-1493 (5 μg/rat, n=3), CNI-1493 plus atropine (5 μg/rat each), or atropine (5 μg/rat). Carrageenan was given to the animals 1 h later, and paw edema was determined 3 h post carrageenan. […]

Chain of H1 histamine (P35367 whole entry): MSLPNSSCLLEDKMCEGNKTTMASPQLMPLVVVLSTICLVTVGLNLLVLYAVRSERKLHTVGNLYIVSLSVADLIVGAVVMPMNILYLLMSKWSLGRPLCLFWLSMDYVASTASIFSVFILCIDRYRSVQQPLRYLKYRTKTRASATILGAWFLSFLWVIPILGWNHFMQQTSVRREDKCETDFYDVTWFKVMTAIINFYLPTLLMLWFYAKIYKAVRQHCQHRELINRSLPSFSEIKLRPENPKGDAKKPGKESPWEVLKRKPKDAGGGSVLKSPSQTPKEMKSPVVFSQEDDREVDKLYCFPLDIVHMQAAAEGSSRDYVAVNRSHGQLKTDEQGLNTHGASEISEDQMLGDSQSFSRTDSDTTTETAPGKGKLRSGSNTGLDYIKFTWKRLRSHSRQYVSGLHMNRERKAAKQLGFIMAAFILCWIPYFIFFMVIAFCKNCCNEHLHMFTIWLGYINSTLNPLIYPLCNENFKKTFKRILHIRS
Chain of NK1 neurokinin (P25103 whole entry): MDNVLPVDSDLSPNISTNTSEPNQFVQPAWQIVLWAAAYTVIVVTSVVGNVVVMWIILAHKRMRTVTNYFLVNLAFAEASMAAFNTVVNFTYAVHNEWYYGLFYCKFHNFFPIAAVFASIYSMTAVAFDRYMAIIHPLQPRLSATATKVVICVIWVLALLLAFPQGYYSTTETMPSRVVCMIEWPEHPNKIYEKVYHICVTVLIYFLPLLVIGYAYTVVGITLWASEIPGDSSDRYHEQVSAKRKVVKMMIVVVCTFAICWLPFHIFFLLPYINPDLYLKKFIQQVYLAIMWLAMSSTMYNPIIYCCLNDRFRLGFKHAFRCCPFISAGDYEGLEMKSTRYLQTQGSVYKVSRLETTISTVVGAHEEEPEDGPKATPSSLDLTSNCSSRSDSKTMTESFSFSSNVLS
Chain of epidermal growth factor (P00533 25-1210): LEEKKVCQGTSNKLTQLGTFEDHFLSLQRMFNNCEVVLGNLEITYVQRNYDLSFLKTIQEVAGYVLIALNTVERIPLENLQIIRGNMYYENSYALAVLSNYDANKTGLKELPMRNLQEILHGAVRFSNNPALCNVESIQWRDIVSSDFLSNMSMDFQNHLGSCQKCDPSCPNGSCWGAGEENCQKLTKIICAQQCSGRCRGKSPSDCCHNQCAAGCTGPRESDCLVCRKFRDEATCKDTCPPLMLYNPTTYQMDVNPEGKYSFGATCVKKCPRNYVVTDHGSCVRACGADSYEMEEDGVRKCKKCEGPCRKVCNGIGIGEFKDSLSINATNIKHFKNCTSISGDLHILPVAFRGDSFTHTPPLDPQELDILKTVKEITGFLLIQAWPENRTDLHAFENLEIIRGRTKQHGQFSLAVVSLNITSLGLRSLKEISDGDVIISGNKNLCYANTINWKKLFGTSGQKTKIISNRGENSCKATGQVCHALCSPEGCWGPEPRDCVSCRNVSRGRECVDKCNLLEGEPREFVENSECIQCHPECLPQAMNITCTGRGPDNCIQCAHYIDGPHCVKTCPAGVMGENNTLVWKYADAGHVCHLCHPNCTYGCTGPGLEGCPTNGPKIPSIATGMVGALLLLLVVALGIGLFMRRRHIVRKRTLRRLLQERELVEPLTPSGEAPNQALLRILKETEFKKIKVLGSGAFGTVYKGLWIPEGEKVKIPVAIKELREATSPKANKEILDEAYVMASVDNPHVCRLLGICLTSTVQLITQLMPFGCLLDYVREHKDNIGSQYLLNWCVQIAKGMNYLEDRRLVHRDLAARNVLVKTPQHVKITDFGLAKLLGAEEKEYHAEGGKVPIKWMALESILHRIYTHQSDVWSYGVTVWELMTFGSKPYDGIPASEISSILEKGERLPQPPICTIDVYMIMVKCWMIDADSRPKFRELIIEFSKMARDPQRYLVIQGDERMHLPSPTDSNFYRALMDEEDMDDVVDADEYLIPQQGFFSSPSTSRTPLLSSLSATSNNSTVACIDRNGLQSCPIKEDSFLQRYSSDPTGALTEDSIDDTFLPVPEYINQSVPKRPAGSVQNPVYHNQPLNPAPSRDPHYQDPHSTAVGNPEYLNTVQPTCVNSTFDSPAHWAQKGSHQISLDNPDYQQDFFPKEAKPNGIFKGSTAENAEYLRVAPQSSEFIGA

CC(=NNC(=N)N)c1cc(NC(=O)CCCCCCCCC(=O)Nc2cc(C(C)=NNC(=N)N)cc(C(C)=NNC(=N)N)c2)cc(C(C)=NNC(=N)N)c1.Cl.Cl.Cl.Cl [CNI-1493, N,N′-bis(3,5-diacetylphenyl) decanediamide tetrakis (amidinohydrazone) tetrahydrochloride]
percent inhibition of receptor binding [1]: less than 50% | percent inhibition of receptor binding [2]: less than 50% | percent inhibition of receptor binding [3]: less than 50% | percent inhibition of receptor binding [4]: less than 50% | percent inhibition of receptor binding [5]: less than 50% | percent inhibition of specific binding [6]: 75.6% | percent inhibition of specific binding [7]: 60.6% | percent inhibition of specific binding [8]: 60.2% | percent inhibition of receptor binding [9]: less than 50% | percent inhibition of receptor binding [10]: less than 50% | percent inhibition of receptor binding [11]: less than 50% | percent inhibition of receptor binding [12]: less than 50% | inhibition of LPS-induced serum TNF levels [13]: more than 80% | reduction of mean LPS-induced TNF release by conditioning [14]: about 60% | percent inhibition of specific binding [15]: 89.7% | inhibition of carrageenan-induced paw edema [16]: significantly inhibits
